Molecular target: T1, KSP (HuEg5) (Homo sapiens, UniProt P52732)
T1 construct: I.D. No. 1 corresponds to residues 1-359 with the C-terminal 6-histidine tag; 6-histidine tag (C); made in house; host or cells: E. coli Tuner (DE3)
T1 sequence (P52732 with tags, fused parts or gaps): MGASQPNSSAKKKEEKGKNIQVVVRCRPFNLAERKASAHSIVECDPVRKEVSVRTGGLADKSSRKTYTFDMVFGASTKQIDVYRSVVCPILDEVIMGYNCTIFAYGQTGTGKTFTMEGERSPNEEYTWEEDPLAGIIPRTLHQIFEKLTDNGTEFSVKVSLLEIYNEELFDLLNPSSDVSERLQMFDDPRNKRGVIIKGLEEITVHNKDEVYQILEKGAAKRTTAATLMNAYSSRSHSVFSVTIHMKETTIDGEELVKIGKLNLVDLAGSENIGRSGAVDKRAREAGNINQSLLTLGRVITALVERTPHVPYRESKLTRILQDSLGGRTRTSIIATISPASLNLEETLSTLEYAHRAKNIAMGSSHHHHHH
Test: in vitro enzymatic KSP (HuEg5) ATPase activity assay
Type: biochemical
Settings: reference compounds; coupled PK/LDH ATPase assay, 25 μM ATP, 12 nM enzyme, 60 minutes at room temperature
From the text: The activity of compounds as KSP (HuEg5) inhibitors may be assayed in vitro, in vivo, or in a cell line. Further, compounds according to the present invention may be screened for activity against one or more kinesins. Provided below is the in vitro enzymatic KSP (HuEg5) ATPase activity assay for activity against KSP (HuEg5).
KSP (Eg5) DNA encoding residues 1-359 of the Kinesin motor domain sequence of the human enzyme may be amplified by PCR and cloned into the NcoI site of pET15b (Novagen), which incorporates a 6-histidine tag at the C-terminus. SEQ. I.D. No. 1 corresponds to residues 1-359 with the C-terminal 6-histidine tag and SEQ. I.D. No. 2 is the DNA sequence that was used to encode SEQ. […]
Recombinant protein may be isolated from cellular extracts by passage over ProBond resin (Invitrogen), and dialysis against buffer containing 25 mM Tris pH 7.6, 50 mM NaCl, 0.25 mM TCEP. The purity of KSP (Eg5) proteins may be determined on denaturing SDS-PAGE gel. […]
The inhibitory properties of compounds relative to KSP may be determined using a clear 384-well plate format under the following reaction conditions: 20 mM K-PIPES pH 6.8, 2 mM MgCl2, 1 mM EGTA, 1.5 mM KCl, 1 mM DTT, 0.01% Brij35, 25 μM ATP, 1 mM phosphoenolpyruvate (PEP), 0.4 mM NADH, 25 nM microtubules (MT), 1 μM Taxol, 30 units/ml rabbit muscle pyruvate kinase (PK), 30 units/ml rabbit muscle lactic dehydrogenase (LDH), and 2% DMSO. […]

Row | SMILES | IC50 [µM]
1 | CCCCN1C(=O)C2Cc3c([nH]c4ccccc34)C(c3cccc(O)c3)N2C1=O (centres unmarked) [HR22C16] | 1.5
2 | CCOC(=O)C1=C(C)NC(=S)NC1c1cccc(O)c1 (centres unmarked) [Monastrol] | 45

Source: patent US20100093767A1, “Mitotic Kinase Inhibitors” (TAKEDA SAN DIEGO, INC., priority 2004, published 2010)
